In EP1180513A1, “CYCLIC AMIDE COMPOUNDS, PROCESS FOR THE PREPARATION OF THE SAME AND USES THEREOF” (Takeda Chemical Industries, Ltd., priority 1999, dated 2000):
Counter-ions that a name gives are not always drawn.

Target: T1, human CCR5 (Homo sapiens, UniProt P51681)
T1 construct: expressed in transfected cells
Assay: CCR5 binding inhibition: [125I]-RANTES binding to CHO/CCR5 cells
Settings: Test Compound 1 µM, 100 pM [125I]-RANTES as ligand, room temperature, 40 minutes, read-out: Inhibitory rate (%) at 1.0 µM
Method: CHO-K1 cells were grown in 750ml of tissue culture flask (Becton Dickinson) using Ham's F12 medium (Nihon Pharmaceutical) containing 10% fetal calf serum (Life Tech Oriental) and took off with 0.5 g/L trypsin-0.2 g/L EDTA (Life Tech Oriental). The cells were washed with PBS (Life Tech Oriental), centrifuged (1000 rpm, 5 minutes), and suspended in PBS. With using Gene Pulser (Bio-Rad Laboratories), DNA was introduced into the cells under the conditions shown below. That is, to the cuvette of 0.4 cm gap were added 8×10^6 cells and 10 µg of plasmid pCKR5 for expression of human CCR5, and electroporation was carried out under 0.25 kV of voltage and 960 µF of capacitance. The cells were transferred into Ham's F12 medium containing 10% fetal calf serum, and cultivated for 24 hours. The cells were again took off and centrifuged, and suspended in Ham's F12 medium containing 10% fetal calf serum and 500 µg/ml of geneticin (Life Tech Oriental). The suspension was diluted to give 10^4 cells/ml of the suspension, which was inoculated on 96 well plate (Becton Dickinson) to give resistant cells. The resulting geneticin resistant cells were cultivated in 96 well plate (Becton Dickinson), and cells expressing CCR5 were selected from the geneticin resistant cells. That is, in assay buffer (Ham's F12 medium containing 0.5% BSA and 20 mM HEPES (Wako Pure Chemical, pH 7.2)) to which was added 200 pM of [^125I]-RANTES (Amersham) as ligand, binding reaction was carried out at room temperature for 40 minutes, and the buffer was washed with cooled PBS. To the buffer was added 50 µl/well of 1M NaOH, and the mixture was stirred. Radioactivity was determined with γ-counter to select CHO/CCR5 cells which specifically bind to the ligand.
The CHO/CCR5 were inoculated on 96 well microplate (5×10^4 cells/well) and cultivated for 24 hours. The medium was removed by means of suction, and to each well was added assay buffer containing Test Compound (1 µM) and then 100 pM of [^125I]-RANTES (Amersham) as ligand. Binding assay was carried out at room temperature for 40 minutes, and assay buffer was removed by means of suction. Each well was washed twice with cooled PBS, and 200 µl of Microscint-20 (Packard Instrument, Inc.) was added to each well. Radio-activity was determined with Top-Count (Packard Instrument, Inc.).
According to the method described above, inhibition rate of Test Compound to CCR5 binding.

T1 sequence (P51681 whole entry): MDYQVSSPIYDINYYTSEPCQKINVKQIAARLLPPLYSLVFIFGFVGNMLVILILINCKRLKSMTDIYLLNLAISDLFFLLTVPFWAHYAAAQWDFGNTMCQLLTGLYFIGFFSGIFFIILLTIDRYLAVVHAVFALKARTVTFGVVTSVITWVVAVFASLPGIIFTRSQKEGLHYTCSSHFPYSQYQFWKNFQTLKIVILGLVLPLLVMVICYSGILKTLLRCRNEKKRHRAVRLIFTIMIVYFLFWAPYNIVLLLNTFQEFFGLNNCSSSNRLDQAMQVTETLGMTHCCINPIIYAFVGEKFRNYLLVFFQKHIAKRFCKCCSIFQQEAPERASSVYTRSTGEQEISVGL

| SMILES | inhibition at 1 µM [%] |
| --- | --- |
| CN1CC(C(=O)N(CCCN2CCC3(C=Cc4ccccc43)CC2)c2ccccc2)CC1=O (stereo not drawn) [Example 8, N-[3-(indene-1-spiro-4'-piperidin-1'-yl)propyl]-1-methyl-5-oxo-N-phenyl-3-pyrrolidinecarboxamide fumarate] | 24 |
| CN1CC(C(=O)N(CCCCN2CCC(C(=O)c3ccc(F)cc3)CC2)c2ccccc2)CC1=O (stereo not drawn) [Example 17, N-{4-[4-(4-fluorobenzoyl)-1-piperidinyl]butyl}-1-methyl-5-oxo-N-phenyl-3-pyrrolidinecarboxamide] | 22 |
| CN1CC(C(=O)N(CCCN2CCC(C(=O)c3ccc(F)cc3)CC2)c2ccccc2)CC1=O (stereo not drawn) [Example 13, N-{3-[4-(4-fluorobenzoyl) -1-piperidinyl]propyl}-1-methyl-5-oxo-N-phenyl-3-pyrrolidinecarboxamide] | 40 |
| O=C1CC(C(=O)N(CCCN2CCC(Cc3ccccc3)CC2)c2ccccc2)CN1c1ccccc1 (stereo not drawn) [Example 52, N-[3-(4-benzyl-1-piperidinyl)propyl]-5-oxo-N,1-diphenyl-3-pyrrolidinecarboxamide] | 76 |
| O=C1CC(C(=O)N(CCCN2CCC(Cc3ccccc3)CC2)c2ccccc2)CN1Cc1ccccc1 (stereo not drawn) [Example 51, 1-benzyl-N-[3-(4-benzyl-1-piperidinyl)propyl]-5-oxo-N-phenyl-3-pyrrolidinecarboxamide] | 92 |
| O=C1CC(C(=O)N(CCCN2CCC(Cc3ccccc3)CC2)c2ccccc2)CN1CC(F)(F)F (stereo not drawn) [Example 93, N-[3-(4-benzyl-1-piperidinyl)propyl]-5-oxo-N-phenyl-1-(2,2,2-trifluoroethyl)-3-pyrrolidinecarboxamide] | 90 |

Continued, values first:

| inhibition at 1 µM [%] | SMILES |
| --- | --- |
| 95 | CN1CC(C(=O)N(CCCN2CCC(Cc3ccccc3)CC2)c2ccc(Cl)c(Cl)c2)CC1=O (stereo not drawn) [Example 23, N-[3-(4-benzyl-1-piperidinyl)propyl]-N-(3,4-dichlorophenyl)-1-methyl-5-oxo-3-pyrrolidinecarboxamide hydrochloride] |
| 82 | CN1CC(C(=O)N(CCCN2CCC(Cc3ccccc3)CC2)c2cccc(Cl)c2)CC1=O (stereo not drawn) [Example 38, N-[3-(4-benzyl-1-piperidinyl)propyl]-N-(3-chlorophenyl)-1-methyl-5-oxo-3-pyrrolidinecarboxamide hydrochloride] |
| 92 | CN1CC(C(=O)N(CCCN2CCC(Cc3ccc(F)cc3)CC2)c2ccc(Cl)c(Cl)c2)CC1=O (stereo not drawn) [Example 84, N-(3,4-dichlorophenyl)-N-{3-[4-(4-fluorobenzyl)-1-piperidinyl]propyl}-1-methyl-5-oxo-3-pyrrolidinecarboxamide hydrochloride] |
| 91 | O=C1CC(C(=O)N(CCCN2CCC(Cc3ccccc3)CC2)c2ccccc2)CN1Cc1ccccc1Cl (stereo not drawn) [Example 76, N-[3-(4-benzyl-1-piperidinyl)propyl]-1-(2-chlorobenzyl)-5-oxo-N-phenyl-3-pyrrolidinecarboxamide] |
| 67 | CN1CC(C(=O)N(CCCN2CCC(Cc3ccccc3)CC2)Cc2ccccc2)CC1=O (stereo not drawn) [Example 62, N-benzyl-N-[3-(4-benzyl-1-piperidinyl)propyl]-1-methyl-5-oxo-3-pyrrolidinecarboxamide] |
| 57 | CN1CC(C(=O)N(CCCN2CCC(Cc3ccccc3)CC2)c2ccccc2)CC1=O (stereo not drawn) [Example 1, N-[3-(4-benzyl-1-piperidinyl)propyl]-1-methyl-5-oxo-N-phenyl-3-pyrrolidinecarboxamide hydrochloride] |
